# From EP4778933A1 (Chengdu Hyperway Pharmaceuticals Co., Ltd., priority 2023, dated 2025)
# Where two headings read alike, the source gives them in different places.
# Tested on: KRAS G12D-mediated ERK phosphorylation
# Assay: Inhibition of KRAS G12D-mediated ERK phosphorylation in AGS cells (in-cell pERK/GAPDH immunofluorescence)
# Format: cell-based
# Procedure: Day 1: AGS cells, SW480 cells, NCI H358 cells, HCT116 cells, and KP2 cells were seeded into 384-well cell culture plates and cultured overnight in a 37°C, 5% CO2 incubator.
# Day 2: The compounds were added to the plates using Echo550 and incubated for 3 h in a 37°C, 5% CO2 incubator. Then, cells fixed with paraformaldehyde, permeated with methanol and blocked with a blocking solution were added. Finally, a mixed solution of primary antibodies (rabbit anti pERK, mouse anti GAPDH) was added, and the mixture was incubated overnight at 4°C.
# Day 3: The mixed solution of primary antibodies was discarded, and a mixed solution of secondary antibodies (goat anti rabbit 800 CW, goat anti mouse 680 RD) was added. The resulting mixture was incubated at room temperature in the dark. Finally, the cell culture plate was washed with PBST, and then inverted for 1 minute of centrifugation. The fluorescence signal values were read with Odyssey CLx.
# ERK phosphorylation was calculated according to the following formula: [formula] • Negative control: DMSO • Positive control: 10 µM Reference • IC50 value was fitted and calculated by XLFit 5.0 using the parametric formula. • Y = Bottom+(Top-Bottom)/(1+10^((LogIC50-X)*HillSlope)) • X: log value of compound concentration. • Y: average value of relative expression of p-ERK between replicate wells.
# [1] = Homo sapiens, AGS, 3 h, AGS cells, 3 h incubation, read-out: Inhibitory activity on ERK phosphorylation (IC50) AGS-G12D
# [2] = Homo sapiens, AGS, 3 h, read-out: Inhibitory activity on ERK phosphorylation (IC50) AGS-G12D, AGS cells, 3 h incubation
# [3] = AGS cells, 3 h incubation, read-out: Inhibitory activity on ERK phosphorylation (IC50) AGS-G12D
compound,measurement,setting,value
"N#Cc1c(N)sc2c(F)ccc(-c3c(Cl)cc4c(N5CCOCC(O)(CO)C5)nc(OCC56CCCN5C(c5cc(F)c(F)c(F)c5)CC6)nc4c3F)c12 (racemic) [Example 2, 2-amino-4-{6-chloro-8-fluoro-4-[6-hydroxy-6-(hydroxymethyl)-1,4-oxazepan-4-yl]-2-({[3-(3,4,5-trifluorophenyl)-2,3,5,6,7,7a-hexahydro-1H-pyrrolizin-7a-yl]methyl}oxy)quinazolin-7-yl}-7-flu orobenzo[b]thiophene-3-carbonitrile]",IC50,[1],> 1000 nM
"CC1=NOC2(CCCN(c3nc(OCC45CCCN4C(c4cc(F)c(F)c(F)c4)CC5)nc4c(F)c(-c5ccc(F)c6sc(N)c(C#N)c56)c(Cl)cc34)CC2)C1 (racemic) [Example 3, 2-amino-4-[6-chloro-8-fluoro-4-(3-methyl-2,8-diaza-1-oxaspiro[4.6]undec-2-en-8-yl)-2-({[3-(3,4,5-trifluorophenyl)-2,3,5,6,7,7a-hexahydro-1H-pyrrolizin-7a-yl]methyl}oxy)quinazolin-7-yl]-7-fl uorobenzo[b]thiophene-3-carbonitrile]",IC50,[1],> 1000 nM
"N#Cc1c(N)sc2c(F)ccc(-c3c(Cl)cc4c(N5CCCC(O)(C(F)(F)F)CC5)nc(OCC56CCCC5C(c5cc(F)c(F)c(F)c5)CC6)nc4c3F)c12 (racemic) [Example 5, 2-amino-4-{6-chloro-8-fluoro-4-[4-hydroxy-4-(trifluoromethyl)azepan-1-yl]-2-({[1-(3,4,5-trifluorophenyl)octahydrocyclopenta[1,2-a][5]annulen-3a-yl]methyl}oxy)quinazolin-7-yl}-7-fluorobenzo[b]thiop hene-3-carbonitrile]",IC50,[1],313 nM
"CC1(O)CCCN(c2nc(OCC34CCCN3C(c3cc(F)c(F)c(F)c3)CC4)nc3c(F)c(-c4ccc(F)c5sc(N)c(C#N)c45)c(Cl)cc23)CC1 (racemic) [Example 6, 2-amino-4-[6-chloro-8-fluoro-4-(4-hydroxy-4-methylazepan-1-yl)-2-({[3-(3,4,5-trifluorophenyl)-2,3,5,6,7,7a-hexahydro-1H-pyrrolizin-7a-yl]methyl}oxy)quinazolin-7-yl]-7-fluorobenzo[b]thioph ene-3-carbonitrile]",IC50,[1],787 nM
"N#Cc1c(N)sc2c(F)ccc(-c3c(Cl)cc4c(N5CC6C[C@@H](C5)c5cccc(=O)n5C6)nc(OCC56CCCN5C(c5cc(F)c(F)c(F)c5)CC6)nc4c3F)c12 (mixture of isomers) [Example 7, 2-amino-4-{6-chloro-8-fluoro-4-[(1S)-6-oxo-7,11-diazatricyclo[7.3.1.02,7]trideca-2(3),4-dien-11-yl]-2-({[3-(3,4,5-trifluorophenyl)-2,3,5,6,7,7a-hexahydro-1H-pyrrolizin-7a-yl]methyl}oxy)quinazolin-7-yl}-7-fluorobenzo[b]thiophene-3-carbonitrile]",IC50,"Homo sapiens, AGS cells, 3 h incubation, read-out: Inhibitory activity on ERK phosphorylation (IC50) AGS-G12D",738 nM
"N#Cc1c(N)sc2c(F)ccc(-c3c(Cl)cc4c(N5CC6COCC6C5)nc(OCC56CCCN5C(c5cc(F)c(F)c(F)c5)CC6)nc4c3F)c12 (racemic) [Example 8, 4-[4-(3,3a,4,5,6,6a-hexahydro-1H-furano[4,3-c]pyrrolo-5-yl)-6-chloro-8-fluoro-2-({[3-(3,4,5-trifluorophenyl)-2,3,5,6,7,7a-hexahydro-1H-pyrrolizin-7a-yl]methyl}oxy)quinazolin-7-yl]-2-amino-7-fluorobenzo[b]thiophene-3-carbonitrile]",IC50,[2],> 1000 nM
"N#Cc1c(N)sc2c(F)ccc(-c3c(Cl)cc4c(N5CCC6(CC5)CC(O)CO6)nc(OCC56CCCN5C(c5cc(F)c(F)c(F)c5)CC6)nc4c3F)c12 (racemic) [Example 14, 8-[7-(2-amino-7-fluorobenzo[b]thiophen-4-yl)-6-chloro-8-fluoro-2-({[3-(3,4,5-trifluorophenyl)-2,3,5,6,7,7a-hexahydro-1H-pyrrolizin-7a-yl]methyl}oxy)quinazolin-4-yl]-8-aza-1-oxaspiro[4.5]de c-3-ol]",IC50,[2],758 nM
"COC1CCN(c2nc(OCC34CCCN3C(c3cc(F)c(F)c(F)c3)CC4)nc3c(F)c(-c4ccc(F)c5sc(N)c(C#N)c45)c(N)cc23)C1 (racemic) [Example 15, 2-amino-4-[6-amino-8-fluoro-4-(3-methoxytetrahydro-1H-pyrrol-1-yl)-2-({[3-(3,4,5-trifluor ophenyl)-2,3,5,6,7,7a-hexahydro-1H-pyrrolizin-7a-yl]methyl}oxy)quinazolin-7-yl]-7-fluorobenzo[b]t hiophene-3-carbonitrile]",IC50,[1],> 1000 nM
"CN(C)C(=O)C1CN(c2nc(OCC34CCCN3C(c3cc(F)c(F)c(F)c3)CC4)nc3c(F)c(-c4ccc(F)c5sc(N)c(C#N)c45)c(Cl)cc23)CCCO1 (racemic) [Example 16, 4-[7-(2-amino-3-cyano-7-fluorobenzo[b]thiophen-4-yl)-6-chloro-8-fluoro-2-({[3-(3,4,5-trifluorophenyl)-2,3,5,6,7,7a-hexahydro-1H-pyrrolizin-7a-yl]methyl}oxy)quinazolin-4-yl]-N,N-dimethyl-1,4-oxazepan-2-carboxamide]",IC50,[1],380 nM
"CC1(O)COCCN(c2nc(OCC34CCCN3C(c3cc(F)c(F)c(F)c3)CC4)nc3c(F)c(-c4cccc5sc(N)c(C#N)c45)c(Cl)cc23)C1 (single isomer, unassigned) [Example 19, 2-amino-4-[6-chloro-8-fluoro-4-(6-hydroxy-6-methyl-1,4-oxazepan-4-yl)-2-({[3-(3,4,5-trifluorophenyl)-2,3,5,6,7,7a-hexahydro-1H-pyrrolizin-7a-yl]methyl}oxy)quinazolin-7-yl]benzo[b]thiophene-3-carbonitrile]",IC50,[3],> 1000 nM
"CC1(O)COCCN(c2nc(OCC34CCCN3C(c3cc(F)c(F)c(F)c3)CC4)nc3c(F)c(-c4cccc5sc(N)c(C#N)c45)c(Cl)cc23)C1 (single isomer, unassigned) [Example 20, 2-amino-4-[6-chloro-8-fluoro-4-(6-hydroxy-6-methyl-1,4-oxazepan-4-yl)-2-({[3-(3,4,5-trifluorophenyl)-2,3,5,6,7,7a-hexahydro-1H-pyrrolizin-7a-yl]methyl}oxy)quinazolin-7-yl]benzo[b]thiophene-3-carbonitrile]",IC50,[3],> 1000 nM
"CC1(O)COCCN(c2nc(OCC34CCCN3C(c3cc(F)c(F)c(F)c3)CC4)nc3c(F)c(-c4cccc5sc(N)c(C#N)c45)c(Cl)cc23)C1 (single isomer, unassigned) [Example 22, 2-amino-4-[6-chloro-8-fluoro-4-(6-hydroxy-6-methyl-1,4-oxazepan-4-yl)-2-({[3-(3,4,5-trifluorophenyl)-2,3,5,6,7,7a-hexahydro-1H-pyrrolizin-7a-yl]methyl}oxy)quinazolin-7-yl]benzo[b]thiophene-3-carbonitrile]",IC50,[3],43 nM
"CC1(O)COCCN(c2nc(OCC34CCCN3C(c3cc(F)c(F)c(F)c3)CC4)nc3c(F)c(-c4cccc5sc(N)c(C#N)c45)c(Br)cc23)C1 (single isomer, unassigned) [Example 24, 2-amino-4-[6-bromo-8-fluoro-4-(6-hydroxy-6-methyl-1,4-oxazepan-4-yl)-2-({[3-(3,4,5-trifluoropheny 1)-2,3,5,6,7,7a-hexahydro-1H-pyrrolizin-7a-yl]methyl}oxy)quinazolin-7-yl]benzo[b]thiophene-3-carb onitrile]",IC50,"AGS cells, 3 h incubation",106 nM
"CC1(O)COCCN(c2nc(OCC34CCCN3C(c3cc(F)c(F)c(F)c3)CC4)nc3c(F)c(-c4cccc5sc(N)c(C#N)c45)c(Br)cc23)C1 (single isomer, unassigned) [Example 25, 2-amino-4-[6-bromo-8-fluoro-4-(6-hydroxy-6-methyl-1,4-oxazepan-4-yl)-2-({[3-(3,4,5-trifluoropheny 1)-2,3,5,6,7,7a-hexahydro-1H-pyrrolizin-7a-yl]methyl}oxy)quinazolin-7-yl]benzo[b]thiophene-3-carb onitrile]",IC50,"AGS cells, 3 h incubation",> 1000 nM
"CC1(O)COCCN(c2nc(OCC34CCCN3C(c3cc(F)c(F)c(F)c3)CC4)nc3c(F)c(-c4cccc5sc(N)c(C#N)c45)c(Br)cc23)C1 (single isomer, unassigned) [Example 27, 2-amino-4-[6-bromo-8-fluoro-4-(6-hydroxy-6-methyl-1,4-oxazepan-4-yl)-2-({[3-(3,4,5-trifluoropheny 1)-2,3,5,6,7,7a-hexahydro-1H-pyrrolizin-7a-yl]methyl}oxy)quinazolin-7-yl]benzo[b]thiophene-3-carb onitrile]",IC50,"AGS cells, 3 h incubation",355 nM
"CC1(O)COCCN(c2nc(OCC34CCCN3C(c3cc(F)c(F)c(F)c3)CC4)nc3c(F)c(-c4cccc5sc(N)c(C#N)c45)c(I)cc23)C1 (single isomer, unassigned) [Example 29, 2-amino-4-[6-iodo-8-fluoro-4-(6-hydroxy-6-methyl-1,4-oxazepan-4-yl)-2-({[3-(3,4,5-trifluorophenyl)-2,3,5,6,7,7a-hexahydro-1H-pyrrolizin-7a-yl]methyl}oxy)quinazolin-7-yl]benzo[b]thiophene-3-carbonitrile]",IC50,[3],33 nM
